The source of these data is patent publication US7417024B2, “Template-fixed peptidomimetics as inhibitors of serine proteases” (Polyphor Ltd., priority 2001, dated 2008).

Where a SMILES comes first, the peptide text is derived from it. Bridges are numbered along the chain shown (N, C = ends). [ ]: non-standard residue; d: D form.

The target in test [1] is Chymotrypsin (Homo sapiens, UniProt P17538). Nature of the test: Enzymatic assay, chymotrypsin inhibition (apparent Ki). The class given is biochemical. To be noted: substrate N-succinyl-Ala-Ala-Pro-Phe-4-nitroanilide 1.6 mM. As for the experimental part: (§1) The active enzyme concentrations were calculated using the equation described by Hendersen (P. J. F. Hendersen, Biochem. J. 1972, 127, 321-333). The inhibitor concentrations were determined by quantitative amino acid analysis. All assays were repeated in quadruplicate.
(§2) As above, except the substrate was N-succinyl-L-alanyl-L-alanyl-L-prolyl-L-phenylalanin-4-nitroanilide (N-succinyl—SEQ ID NO:16—4-nitroanilide; 1.6 mM).
(§3) Apparent Ki values were calculated by fitting the initial rate data to the following equation, which assumes competitive tight-binding inhibition (J. F. Williams, J. F. Morrison, Methods Enzymol. 1979, 63, 437-467): […]

Test [2] has as its target T1, Trypsin (Bos taurus, UniProt P00760).
T1 sequence (P00760 24-246): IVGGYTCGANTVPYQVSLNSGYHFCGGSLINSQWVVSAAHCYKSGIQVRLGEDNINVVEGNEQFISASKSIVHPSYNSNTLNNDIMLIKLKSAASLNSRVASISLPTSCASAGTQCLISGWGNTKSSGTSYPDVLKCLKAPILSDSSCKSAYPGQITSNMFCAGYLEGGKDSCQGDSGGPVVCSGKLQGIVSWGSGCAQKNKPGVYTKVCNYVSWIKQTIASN
The experiment in a line: Enzymatic assay, determination of antitrypsin activity (apparent Ki). The class given is biochemical. To be noted: competitive tight-binding fit. As to the method: as §1
Determination of Antitrypsin Activity
as §2, §3

Test [3] has as its target Chymotrypsin. The experiment in a line: enzyme inhibition, chromogenic substrate; apparent Ki fitted as competitive tight-binding inhibition.
Test [4] deals with Trypsin. The description is as above.
The target of test [5] is T2, Cathepsin G (human, UniProt P08311 21-244).
T2 construct: the assay paragraph itself says only 'cathepsin G ... purchased from Calbiochem'; also called human cathepsin G
T2 sequence (looked up): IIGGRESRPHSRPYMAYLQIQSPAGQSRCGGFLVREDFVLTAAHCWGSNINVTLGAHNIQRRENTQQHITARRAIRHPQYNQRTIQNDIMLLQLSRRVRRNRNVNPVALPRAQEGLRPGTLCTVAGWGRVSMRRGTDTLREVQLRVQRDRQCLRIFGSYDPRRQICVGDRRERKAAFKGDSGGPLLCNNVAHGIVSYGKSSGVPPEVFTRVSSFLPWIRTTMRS
The experiment in a line: enzyme inhibition, Suc-Ala-Ala-Pro-Phe-pNA substrate, release of p-nitroanilide at 405 nm. As for the experimental part: Determination of Anti Cathepsin G Activity […] of a solution of cathepsin G (0.2 U/mL, corresponding to around 2 µM, purchased from Calbiochem) were incubated for 15 minutes with increasing concentrations of inhibitor. The assays were carried out at 37° C. in a total volume of 700 µl of HEPES buffer (pH 7.5; 0.1 mol/L) containing 0.05 mol/L CaCl_2. Then, 70 µl of the following substrate at 20 mM in DMSO were added (—N-succinyl-L-alanyl-L-alanyl-L-prolyl-L-phenylalanin-4-nitroanilide, (N-succinyl—SEQ ID NO:16—4-nitroanilide). The release of p-nitroanilide was monitored at 405 nm to determine the initial velocities of the reactions. Each measurement was reproduced three times (A. J. Barrett, Methods in Enzymology 1981, 80, 561-565).

Sequence of Chymotrypsin (Homo sapiens, UniProt P17538) (P17538 19-263): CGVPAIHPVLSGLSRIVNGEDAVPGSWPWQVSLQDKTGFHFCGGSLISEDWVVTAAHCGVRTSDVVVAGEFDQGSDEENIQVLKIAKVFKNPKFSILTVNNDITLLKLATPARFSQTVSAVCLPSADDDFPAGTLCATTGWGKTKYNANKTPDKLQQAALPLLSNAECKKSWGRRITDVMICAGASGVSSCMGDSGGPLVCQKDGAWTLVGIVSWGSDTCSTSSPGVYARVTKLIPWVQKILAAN

Regarding `CC[C@H](C)[C@@H]1NC(=O)[C@@H]2CCCN2C(=O)[C@@H]2CCCN2C(=O)[C@H]([C@@H](C)CC)NC(=O)[C@H](CO)NC(=O)[C@H](CCCCN)NC(=O)[C@H]([C@@H](C)O)NC(=O)[C@@H]2CCCN2C(=O)[C@H]2CCCN2C1=O` [Ex. 1] (cyclo(TKSIPPI[dP]P)), the figures for the Ki in test [1] and in test [2] were greater than 10000 nM and 100 nM, respectively.

Consider `CC[C@H](C)[C@@H]1NC(=O)[C@@H]2CCCN2C(=O)[C@@H]2CCCN2C(=O)[C@H]([C@@H](C)CC)NC(=O)[C@H](CO)NC(=O)[C@H](CCCCN)NC(=O)[C@H](C)NC(=O)[C@@H]2CCCN2C(=O)[C@H]2CCCN2C1=O` [Ex. 2] (cyclo(AKSIPPI[dP]P)), for which, in test [2], the Ki was 1500 nM.

For `CC[C@H](C)[C@@H]1NC(=O)[C@@H]2CCCN2C(=O)[C@@H]2CCCN2C(=O)[C@H]([C@@H](C)CC)NC(=O)[C@H](CO)NC(=O)[C@H](C)NC(=O)[C@H]([C@@H](C)O)NC(=O)[C@@H]2CCCN2C(=O)[C@H]2CCCN2C1=O` [Ex. 3] (cyclo(TASIPPI[dP]P)), the Ki in test [2] is greater than 10000 nM.

Turning to `CC[C@H](C)[C@@H]1NC(=O)[C@@H]2CCCN2C(=O)[C@@H]2CCCN2C(=O)[C@H]([C@@H](C)CC)NC(=O)[C@H](C)NC(=O)[C@H](CCCCN)NC(=O)[C@H]([C@@H](C)O)NC(=O)[C@@H]2CCCN2C(=O)[C@H]2CCCN2C1=O` [Ex. 4] (cyclo(TKAIPPI[dP]P)), the Ki in test [2] came to 700 nM.

As to `CC[C@H](C)[C@@H]1NC(=O)[C@@H]2CCCN2C(=O)[C@@H]2CCCN2C(=O)[C@H](C)NC(=O)[C@H](CO)NC(=O)[C@H](CCCCN)NC(=O)[C@H]([C@@H](C)O)NC(=O)[C@@H]2CCCN2C(=O)[C@H]2CCCN2C1=O` [Ex. 5] (cyclo(TKSAPPI[dP]P)), the Ki in test [2] was determined as 1900 nM.

`CC[C@H](C)[C@@H]1NC(=O)[C@H](CO)NC(=O)[C@H](CCCCN)NC(=O)[C@H]([C@@H](C)O)NC(=O)[C@@H]2CCCN2C(=O)[C@H]2CCCN2C(=O)[C@H]([C@@H](C)CC)NC(=O)[C@@H]2CCCN2C(=O)[C@H](C)NC1=O` [Ex. 6] (cyclo(TKSIAPI[dP]P)): in test [2], the Ki is greater than 25000 nM.

Regarding `CC[C@H](C)[C@@H]1NC(=O)[C@H](C)NC(=O)[C@@H]2CCCN2C(=O)[C@H]([C@@H](C)CC)NC(=O)[C@H](CO)NC(=O)[C@H](CCCCN)NC(=O)[C@H]([C@@H](C)O)NC(=O)[C@@H]2CCCN2C(=O)[C@H]2CCCN2C1=O` [Ex. 7] (cyclo(TKSIPAI[dP]P)), the Ki in test [2] was 110 nM.

For the molecule `CC[C@H](C)[C@@H]1NC(=O)[C@H](CO)NC(=O)[C@H](CCCCN)NC(=O)[C@H]([C@@H](C)O)NC(=O)[C@@H]2CCCN2C(=O)[C@H]2CCCN2C(=O)[C@H](C)NC(=O)[C@@H]2CCCN2C(=O)[C@@H]2CCCN2C1=O` [Ex. 8] (cyclo(TKSIPPA[dP]P)), in test [2], the Ki came out at 710 nM.

Turning to `CC[C@H](C)[C@@H]1NC(=O)[C@@H]2CCCN2C(=O)[C@@H]2CCCN2C(=O)[C@H]([C@@H](C)CC)NC(=O)[C@H](CO)NC(=O)[C@H](Cc2ccc(O)cc2)NC(=O)[C@H]([C@@H](C)O)NC(=O)[C@@H]2CCCN2C(=O)[C@H]2CCCN2C1=O` [Ex. 9] (cyclo(TYSIPPI[dP]P)), the figures for the Ki in test [1] and in test [2] were 4400 nM and greater than 25000 nM, respectively.

On to `CC[C@H](C)[C@@H]1NC(=O)[C@@H]2CCCN2C(=O)[C@@H]2CCCN2C(=O)[C@H]([C@@H](C)CC)NC(=O)[C@H](CO)NC(=O)[C@H](Cc2c[nH]c3ccccc23)NC(=O)[C@H]([C@@H](C)O)NC(=O)[C@@H]2CCCN2C(=O)[C@H]2CCCN2C1=O` [Ex. 10] (cyclo(TWSIPPI[dP]P)), for which the Ki was 1400 nM in test [1] and greater than 20000 nM in test [2].

As for `CC[C@H](C)[C@@H]1NC(=O)[C@@H]2CCCN2C(=O)[C@@H]2CCCN2C(=O)[C@H]([C@@H](C)CC)NC(=O)[C@H](CO)NC(=O)[C@H](Cc2ccccc2)NC(=O)[C@H]([C@@H](C)O)NC(=O)[C@@H]2CCCN2C(=O)[C@H]2CCCN2C1=O` [Ex. 11] (cyclo(TFSIPPI[dP]P)), the Ki in test [1] was 4700 nM; in test [2] it was greater than 20000 nM.

Regarding `CC[C@H](C)[C@@H]1NC(=O)[C@@H]2CCCN2C(=O)[C@@H]2CCCN2C(=O)[C@H]([C@@H](C)CC)NC(=O)[C@H](CO)NC(=O)[C@H](CCCCN)NC(=O)[C@H]([C@@H](C)O)NC(=O)[C@@H]2CSSC[C@H](NC1=O)C(=O)N[C@@H](Cc1ccccc1)C(=O)N1CCC[C@@H]1C(=O)N1CCC[C@H]1C(=O)N[C@@H](CCCNC(=N)N)C(=O)N2` [Ex. 15] (cyclo(RCTKSIPPICF[dP]P); disulfide 2-10), the Ki is 3800 nM in test [1] and 21 nM in test [2].

B1: Ex. 15 (peptide)
peptide: cyclo(RCTKSIPPICF[dP]P)
modifications: disulfide 2-10
SMILES: CC[C@H](C)[C@@H]1NC(=O)[C@@H]2CCCN2C(=O)[C@@H]2CCCN2C(=O)[C@H]([C@@H](C)CC)NC(=O)[C@H](CO)NC(=O)[C@H](CCCCN)NC(=O)[C@H]([C@@H](C)O)NC(=O)[C@@H]2CSSC[C@H](NC1=O)C(=O)N[C@@H](Cc1ccccc1)C(=O)N1CCC[C@@H]1C(=O)N1CCC[C@H]1C(=O)N[C@@H](CCCNC(=N)N)C(=O)N2
notes: n=11 mimetic made by procedure 3 (disulfide between P2 and P10)
Turning to B1, the Ki in test [3] was found to be 3800 nM; in test [4] it was 21 nM; in test [5], 10000 nM.

B2: Ex. 1 (peptide)
peptide: cyclo(TKSIPPI[dP]P)
SMILES: CC[C@H](C)[C@@H]1NC(=O)[C@@H]2CCCN2C(=O)[C@@H]2CCCN2C(=O)[C@H]([C@@H](C)CC)NC(=O)[C@H](CO)NC(=O)[C@H](CCCCN)NC(=O)[C@H]([C@@H](C)O)NC(=O)[C@@H]2CCCN2C(=O)[C@H]2CCCN2C1=O
notes: Template-fixed beta-hairpin mimetic, cyclic; parent of the Ala scan
B2: the values for the Ki in test [4] and in test [5] were 100 nM and 100000 nM, respectively.
